Test results taken from patent publication US12545637B2, “Extrahepatic targeted cationic lipid compound with high efficiency and low toxicity and its composition” (BEIJING YOUCARE KECHUANG PHARMACEUTICAL TECHNOLOGY CO., LTD., priority 2023, dated 2026).

Assays:
[1] = Particle size and polydispersity index (PDI) of lipid nanoparticles by dynamic light scattering; type: physicochemical; settings: for PDI: LNP formulation of the cationic lipid, 25° C.; for Particle size: LNP formulation of the cationic lipid/DSPC/cholesterol/DMG-PEG2000 49:10:39.5:1.5, 25° C.
Protocol: The particle size and polydispersity index (PDI) were determined by dynamic light scattering using Malvern laser particle size analyzer.
10 μL of the liposome solution was weighed, diluted to 1 mL with RNase-free deionized water, and added to the sample pool. Each sample was measured in triplicate. The measurement conditions were: […] scattering angle, and 25° C.

[2] = Detection of encapsulation efficiency, drug loading concentration and total RNA concentration (RiboGreen); type: physicochemical; settings: LNP formulation prepared from the cationic lipid
Description: Encapsulation efficiency is a key quality attribute of liposomes, which refers to the percentage of drug content encapsulated in the lipid bimolecular layer accounting for the total drug dose and can reflect the degree of drug encapsulation in liposomes. The Chinese Pharmacopoeia stipulates that the encapsulation efficiency should generally not be less than 80%.
The drug loading amount is the ratio of the amount of drug in the liposome to the total amount of drug and carrier in the liposome. The drug loading amount directly affects the clinical application dose of the drug. […] The drug loading concentration is proportional to the drug loading amount, and the relative proportion of the drug loading concentrations can represent the relative proportion of the drug loading amounts. The relative ratio of the total RNA concentrations may represent the relative ratio of the amounts of mRNA carried by the LNP formulations.
1×TE buffer, 0.1% Triton X-100 buffer, RiboGreen reagent (1: 200) and mRNA standard stock solution were prepared.
An appropriate amount of the sample was added to an appropriate amount of 1×TE buffer, and the mixture was diluted to obtain a solution containing approximately […] sample per 1 mL. Then the sample was added to a 96-well plate, and 50 μL of the diluted test sample or the mRNA standard stock solution was added to each well, then 1×TE buffer and 0.1% Triton X-100 buffer were added. The sample was incubated at 37° C. for 10 minutes, and 100 μL RiboGreen reagent (1:200) was added to each well of the test sample in the 96-well plate. The sample was centrifugated, and the data were read using a microplate reader, and processed.

293T cells [3] = assay: Fluorescent detection of Fluc-mRNA (cell transfection efficiency of LNP formulations); type: cell-based; settings: for Relative light unit (RLU): LNP with 0.3 μg Fluc-mRNA, 96-well plate, 24 hours
Protocol: (§1) Seeding plate: The cells in the culture dish were digested and counted. Cells were spread in a 96-well plate at 10,000 cells per well and in a 12-well plate at 150,000 cells per well. Cells were cultured overnight until the cells adhered to the wall.
The corresponding reagents were added according to the instructions of the Gaussia Luciferase Assay Kit, and the fluorescence expression intensity of each well was detected by an IVIS fluorescence detection system.

293T cells [4] = assay: Cell survival rate assay (CCK-8); type: cell-based; settings: LNP with 1.5 μg Fluc-mRNA, 24 hours, CCK-8
Protocol: Cell recovery and passage: 293T cells were recovered, cultured in a culture dish, and passaged to the required number of cells.
as §1
An LNP formulation containing 1.5 μg of Fluc-mRNA (prepared according to example 4, the carrier components of the LNP formulation were cationic lipid, neutral lipid, structured lipid and polymer-conjugated lipid at a molar ratio of 49:10:39.5:1.5, wherein the cationic lipid was listed in Table 1) and the formulation of Lipofectamine 3000 were added to the cell culture medium of a 96-well plate, and further cultivated for 24 hours. 10 μL of CCK-8 solution was then added to each well, and the culture plate was incubated in an incubator for 1 hour. The absorbance at 450 nm was measured by a microplate reader.

female BALB/C mice = assay: In vivo imaging in mice of Fluc-mRNA LNP formulations (mRNA expression and duration); settings: Fluc-mRNA LNP intramuscular; for average radiation intensity, 6 h: 6 h after administration; for average radiation intensity, 24 h: 24 h after administration; for average radiation intensity, 48 h: 48 h after administration; for average radiation intensity, 7 d: 7 d after administration
Protocol: The LNP formulation (prepared according to Example 4) containing […] Fluc-mRNA was injected intramuscularly into female BALB/C mice aged 4-6 weeks and weighed 17-19 g, and the mice were intraperitoneally injected with fluorescent imaging substrate at specific time points after administration (6h, 24 h, 48h and 7d), where the mice were allowed to free move for 5 minutes, and then the average radiation intensity (corresponding to fluorescence expression intensity) of the protein expression of the mRNA carried by the LNP in the mice was detected by the IVIS Spectrum small animal in vivo imaging system.

Row | SMILES | PDI [1] [%] | Particle size [1] [nm] | Drug loading concentration [2] [µg/mL] | Encapsulation efficiency [2] [%] | Total RNA concentration [2] [µg/mL] | Relative light unit (RLU) (293T cells [3]) | Cell survival rate (293T cells [4]) [%] | cell transfection efficiency, times that of YK-417 (293T cells [3]; ratio vs YK-417) | average radiation intensity, 6 h (female BALB/C mice) | average radiation intensity, 24 h (female BALB/C mice) | average radiation intensity, 48 h (female BALB/C mice) | average radiation intensity, 7 d (female BALB/C mice)
1 | CCCCCCCCC(CCCCCCCC)OC(=O)CCCCCN(CCO)CCCCN(CCO)CCCCCC(=O)OC(CCCCCCCC)CCCCCCCC [YK-420, di(heptadecan-9-yl) 6,6′-(butane-1,4-diylbis((2-hydroxyethyl)azanediyl))dihexanoate] | 14.2 | 169 | 35.87 | 94.9 | 37.81 | 4019330 | 35.59 | – | – | – | – | –
2 | CCCCCC(CC)OC(=O)CCCCCCCCN(CCO)CCN(CCO)CCCCCCCCC(=O)OC(CC)CCCCC (stereo not shown) [YK-404, di(octan-3-yl) 9, 9′-(ethane-1,2-diyl-bis((2-hydroxyethyl)azanediyl))dinonanoate] | 4.2 | 142 | 28.45 | 75.3 | 33.41 | 7543 | 42.12 | – | – | – | – | –
3 | CCCCCCCCCCOC(=O)CCCN(CCO)CCCN(CCO)CCCC(=O)OC(CCCCCCCC)CCCCCCCC [YK-414, decyl 4-(3-((4-(heptadecan-9-yloxy)-4-oxobutyl)(2-hydroxyethyl)amino)propyl)(2-hydroxyethyl)aminobutyrate] | – | – | – | – | – | 444089 | 28.75 | – | – | – | – | –
4 | CCCCCCCCCCOC(=O)CCCN(CCO)CCCCCC(=O)OCC(CCCCCCCC)CCCCCCCC [YK-009, reference compound] | 16.0 | 189 | 27.52 | 63.4 | 38.50 | 5146376 | 70.43 | – | 981240 | 705470 | 100560 | 9555
5 | CCCCCCCCC(CCCCCCCC)C(=O)OCCCCCCN(CCO)CCCN(CCO)CCCCCCOC(=O)C(CCCCCCCC)CCCCCCCC [YK-412, (propane-1,3-diyl-bis((2-hydroxyethyl)azanediyl))-bis(hexane-6,1-diyl)bis(2-octyldecanoate)] | – | – | – | – | – | 3371352 | 54.14 | – | – | – | – | –
6 | CCCCCCCCCCCOC(=O)CCCN(CCO)CCN(CCO)CCCCCCOC(=O)CC(CCCCCC)CCCCCC [YK-406, 6-((2-hydroxyethyl) (2-((2-hydroxyethyl)(4-(undecyloxy)-4-oxobutyl)amino)ethyl)amino)hexyl 3-hexylnonanoate] | 15.8 | 154 | 30.19 | 87.8 | 34.41 | 78251 | 24.96 | – | – | – | – | –

More lines, main results first:

Row | PDI [1] [%] | Particle size [1] [nm] | Drug loading concentration [2] [µg/mL] | Encapsulation efficiency [2] [%] | Total RNA concentration [2] [µg/mL] | SMILES | Relative light unit (RLU) (293T cells [3]) | Cell survival rate (293T cells [4]) [%] | cell transfection efficiency, times that of YK-417 (293T cells [3]; ratio vs YK-417) | average radiation intensity, 6 h (female BALB/C mice) | average radiation intensity, 24 h (female BALB/C mice) | average radiation intensity, 48 h (female BALB/C mice) | average radiation intensity, 7 d (female BALB/C mice)
7 | 16.2 | 136 | 45.42 | 86.6 | 52.46 | CCCCCCCCCCOC(=O)CCCN(CCO)CCN(CCO)CCCC(=O)OC(CCCCCCCC)CCCCCCCC [YK-408, heptadecan-9-yl 4-((2-hydroxyethyl)(2-((2-hydroxyethyl)(4-(decyloxy)-4-oxobutyl)amino)ethyl)amino)butyrate] | 1474136 | 42.31 | – | – | – | – | –
8 | 19.7 | 190 | 25.16 | 79.6 | 31.62 | CCCCCCCCCCOC(=O)CCCCCN(CCO)CCCN(CCO)CCCCCC(=O)OCC(CCCCCCCC)CCCCCCCC [YK-416, decyl 6-((2-hydroxyethyl)(3-((2-hydroxyethyl)(6-((2-octyldecyl)oxy)-6-oxohexyl)amino)propyl)amino)hexanoate] | 3975264 | 40.97 | 34 | – | – | – | –
9 | 4.3 | 141 | 33.42 | 83.2 | 40.19 | CCCCCCCCCCOC(=O)CCCN(CCO)CCN(CCO)CCCCCC(=O)OC(CCCCCCCC)CCCCCCCC [YK-405, Heptadecan-9-yl 6-((2-hydroxyethyl)(2-((2-hydroxyethyl)(4-(decyloxy)-4-oxobutyl)amino)ethyl)amino)hexanoate] | 3197780 | 41.86 | – | – | – | – | –
10 | 17.4 | 148 | 33.93 | 83.1 | 40.83 | CCCCCCCCCCOC(=O)CCCN(CCO)CCCCN(CCO)CCCCCC(=O)OC(CCCCCCCC)CCCCCCCC [YK-421, heptadecan-9-yl 6-((4-((4-(decyloxy)-4-oxobutyl)(2-hydroxyethyl)amino)butyl)(2-hydroxyethyl)amino)hexanoate] | 466616 | 35.71 | – | – | – | – | –
11 | 16.1 | 160 | 23.63 | 83.3 | 28.36 | CCCCCCCCCCCOC(=O)CCCN(CCO)CCCN(CCO)CCCCCC(=O)OC(CCCCCCCC)CCCCCCCC [YK-413, heptadecan-9-yl 6-((2-hydroxyethyl)(3-((2-hydroxyethyl)(4-oxo-4-(undecyloxy)butyl)amino)propyl)amino)hexanoate] | 1377048 | 47.20 | – | – | – | – | –
12 | 13.7 | 155 | 34.14 | 86.9 | 39.27 | CCCCCCCCCCCOC(=O)CCCN(CCO)CCN(CCO)CCCCCC(=O)OCC(CCCCCCCC)CCCCCCCC [YK-409, 2-octyldecyl 6-((2-hydroxyethyl)(2-((2-hydroxyethyl)(4-(undecyloxy)-4-oxobutyl)amino)ethyl)amino) hexanoate] | 669807 | 46.11 | – | – | – | – | –
13 | 15.5 | 163 | 29.48 | 88.2 | 33.42 | CCCCCCCCCCOC(=O)CCCCCN(CCO)CCN(CCO)CCCCCC(=O)OCC(CCCCCCCC)CCCCCCCC [YK-410, 2-octyldecyl 6-((2-hydroxyethyl)(2-((2-hydroxyethyl)(6-(decyloxy)-6-oxohexyl)amino)ethyl)amino)hexanoate] | 407868 | 44.92 | – | – | – | – | –
14 | 15.6 | 178 | 31.08 | 87.8 | 35.39 | CCCCCCCCCCCOC(=O)CCCN(CCO)CCCN(CCO)CCCCCC(=O)OCC(CCCCCCCC)CCCCCCCC [YK-415, 2-octyldecyl 6-((2-hydroxyethyl)(3-((2-hydroxyethyl)(4-oxo-4-(undecyloxy)butyl)amino)propyl)amino)hexanoate] | 298021 | 61.16 | – | 117840 | 64501 | 15790 | 4041
